Measured values: patent publication US10485808B2, “Selective progesterone receptor modulators (SPRM) and stabilized estrogen level in patient” (BAYER PHARMA AKTIENGESELLSCHAFT, priority 2017, dated 2019)

What was measured:
Format in all cases: in vivo, human
[1] = tested on: healthy women of reproductive age; assay: Study 15818: hot flush events during treatment period; settings: for Hot flush events, Events (%): 12 weeks
Excerpt: Example 3: Hot Flush Event in Study Subject Treated with Compound 1 (Cp1)
See full study description in Example 2.
Hot flush event were reported and monitored during treatment period.

[2] = tested on: women diagnosed with uterine fibroids; assay: Study 15788: estradiol concentrations in serum, 1x12 weeks treatment
Method: Example 4: Clinical Study in Women Diagnosed with Uterine Fibroids During a 1×12 Weeks/84 Days Treatment with Compound 1
Study protocol (N^o 15788):
Doses: 0.5 mg, 1 mg, 2 mg, or 4 mg once daily
(§1) Route of administration: Oral
Duration of treatment: 1×12 weeks (84 days)
Women, 18 to 50 years old, with uterine fibroids documented by transvaginal or abdominal ultrasound at screening with at least 1 uterine fibroid with largest diameter 3 cm and Heavy Menstrual Bleeding (HMB) 80 mL were eligible for enrolment in the study.
(§2) Following screening visit 1 (Visit 1), there was a screening period of up to 90 days to arrange for complete results of all baseline assessments. […] Every effort was made to keep the duration of the screening period to a minimum.
Eligible subjects were equally randomized to one of the treatment groups (Placebo, 0.5 mg, 1 mg, 2 mg, or 4 mg Compound 1). Treatment was started during the first week of the menstrual cycle following randomization. The treatment period consisted of 12 weeks (84 days) of daily tablet intake.
In this study, estradiol levels were measured • At the End of Treatment (EoT) visit and • Randomization visit 3.

[3] = tested on: women diagnosed with uterine fibroids; assay: Study 15788: hot flush events during treatment
Excerpt: Example 5: Hot Flush Events in Study Subject Treated with Compound 1 (Cp1)
See full study description in Example 4.
(§3) Hot flush events were reported and monitored during treatment.

[4] = tested on: women diagnosed with uterine fibroids; assay: Study 17541/A1: estradiol concentrations in serum, 1x24 weeks treatment; settings: for Estradiol concentrations in serum, Max / Estradiol concentrations in serum, Mean / Estradiol concentrations in serum, Median / Estradiol concentrations in serum, Min: Cp1 2 mg once daily oral
Method: Example 6: Clinical Study in Women Diagnosed with Uterine Fibroids During a 1×24 Weeks Treatment with Compound 1
Study protocol (N^o 17541/A1):
as §1
Duration of treatment: 1×24 weeks
Women, 18 to 50 years old, with uterine fibroids documented by transvaginal or abdominal ultrasound at screening with at least 1 uterine fibroid with largest diameter >3 cm and Heavy Menstrual Bleeding (HMB)>80 mL were eligible for enrolment in the study.
as §2
Eligible subjects were equally randomized to treatment 2 mg of Compound 1. Treatment was started during the first week of the menstrual cycle following randomization. The treatment period consisted of 24 weeks of daily tablet intake.
In this study, estradiol levels were measured • Treatment Visit 3 (corresponding to the end of 12 weeks treatment), • Treatment Visit 6 (corresponding to the end of 24 weeks treatment).

[5] = tested on: women diagnosed with uterine fibroids; assay: Study 17541/A1: hot flush events during treatment; settings: Cp1 2.0 mg once daily oral, 24 weeks
Excerpt: Example 7: Hot Flush Events in Study Subject Treated with Compound 1 (Cp1)
See full study description in Example 6.
as §3

[6] = Cp1 0.5 mg once daily oral, End of Treatment (12 weeks)
[7] = Cp1 0.5 mg once daily oral, Randomization
[8] = Cp1 1 mg once daily oral, End of Treatment (12 weeks)
[9] = Cp1 1 mg once daily oral, Randomization
[10] = Cp1 2 mg once daily oral, End of Treatment (12 weeks)
[11] = Cp1 2 mg once daily oral, Randomization
[12] = Cp1 4 mg once daily oral, End of Treatment (12 weeks)
[13] = Cp1 4 mg once daily oral, Randomization
[14] = Treatment Visit 3 (end of 12 weeks treatment)
[15] = Treatment Visit 6 (end of 24 weeks treatment)

Hot flush events, Events (%) ([1]; Cp1 0.5 mg once daily oral): 5.6%
Hot flush events, Events (%) ([1]; Cp1 1.0 mg once daily oral): 11.1%
Hot flush events, Events (%) ([1]; Cp1 2.0 mg once daily oral): 17.6%
Hot flush events, Events (%) ([1]; Cp1 4.0 mg once daily oral): 29.4%
Severe hot flushes ([1]; all dose groups 0.5-4 mg): No severe hot flushes were reported
Subjects reporting hot flush, total study subjects ([1]; all dose groups 0.5-4 mg): 11
Hot flush events, MILD, number of subjects ([3]; Cp1 0.5 mg, N = 60, 12 weeks): 5
Hot flush events, MILD, percent of subjects ([3]; Cp1 0.5 mg, N = 60, 12 weeks): 8.3%
Hot flush events, MODERATE, number of subjects ([3]; Cp1 0.5 mg, N = 60, 12 weeks): 0
Hot flush events, SEVERE, number of subjects ([3]; Cp1 0.5 mg, N = 60, 12 weeks): single
Hot flush events, SEVERE, percent of subjects ([3]; Cp1 0.5 mg, N = 60, 12 weeks): 1.7%
Hot flush events, Total, number of subjects ([3]; Cp1 0.5 mg, N = 60, 12 weeks): 6
Hot flush events, Total, percent of subjects ([3]; Cp1 0.5 mg, N = 60, 12 weeks): 0.0%
Hot flush events, SEVERE, number of subjects ([3]; Cp1 0.5 mg, N = 60, 12 weeks, listed as Cp1): 1
Hot flush events, MILD, number of subjects ([3]; Cp1 1 mg, N = 61, 12 weeks): 3
Hot flush events, MILD, percent of subjects ([3]; Cp1 1 mg, N = 61, 12 weeks): 4.9%
Hot flush events, MODERATE, number of subjects ([3]; Cp1 1 mg, N = 61, 12 weeks): 2
Hot flush events, MODERATE, percent of subjects ([3]; Cp1 1 mg, N = 61, 12 weeks): 3.3%
Hot flush events, SEVERE, number of subjects ([3]; Cp1 1 mg, N = 61, 12 weeks): 0
Hot flush events, Total, number of subjects ([3]; Cp1 1 mg, N = 61, 12 weeks): 5
Hot flush events, Total, percent of subjects ([3]; Cp1 1 mg, N = 61, 12 weeks): 8.2%
Hot flush events, MILD, number of subjects ([3]; Cp1 2 mg, N = 61, 12 weeks): 4
Hot flush events, MILD, percent of subjects ([3]; Cp1 2 mg, N = 61, 12 weeks): 6.6%
Hot flush events, MODERATE, number of subjects ([3]; Cp1 2 mg, N = 61, 12 weeks): 1
Hot flush events, MODERATE, percent of subjects ([3]; Cp1 2 mg, N = 61, 12 weeks): 1.6%
Hot flush events, SEVERE, number of subjects ([3]; Cp1 2 mg, N = 61, 12 weeks): 0
Hot flush events, Total, number of subjects ([3]; Cp1 2 mg, N = 61, 12 weeks): 5
Hot flush events, Total, percent of subjects ([3]; Cp1 2 mg, N = 61, 12 weeks): 8.2%
Hot flush events, MILD, number of subjects ([3]; Cp1 4 mg, N = 60, 12 weeks): 5
Hot flush events, MILD, percent of subjects ([3]; Cp1 4 mg, N = 60, 12 weeks): 8.3%
Hot flush events, MODERATE, number of subjects ([3]; Cp1 4 mg, N = 60, 12 weeks): 3
Hot flush events, MODERATE, percent of subjects ([3]; Cp1 4 mg, N = 60, 12 weeks): 5.0%
Hot flush events, SEVERE, number of subjects ([3]; Cp1 4 mg, N = 60, 12 weeks): 0
Hot flush events, Total, number of subjects ([3]; Cp1 4 mg, N = 60, 12 weeks): 8
Hot flush events, Total, percent of subjects ([3]; Cp1 4 mg, N = 60, 12 weeks): 13.3%
Subjects showing mild to moderate hot flushes, overall ([3]; all dose groups, 12 weeks): no more than 14%
Hot flush events, Events (%) [5]: no more than 11.4%
Hot flush events, Events (%) ([5]; listed as Cp1): 11.4%
Structure (SMILES): C[C@]12C[C@H](c3ccc(S(C)(=O)=O)cc3)C3=C4CCC(=O)C=C4CC[C@H]3[C@@H]1CC[C@@]2(O)C(F)(F)C(F)(F)F [Compound 1, (11β,17β)-17-Hydroxy-11-[4-(methylsulphonyl)phenyl]-17-(pentafluoroethyl)estra-4,9-dien-3-one]
Estradiol levels under treatment compared to baseline ([2]; 0.5-4 mg once daily, 12 weeks): moderately suppressed
Safety concerns from the data analysed ([2]; 0.5-4 mg once daily, 12 weeks): no safety concerns were identified
Estradiol concentrations in serum, Max [2, 6]: 357.5 pg/mL
Estradiol concentrations in serum, Mean [2, 6]: 97.3 pg/mL
Estradiol concentrations in serum, Median [2, 6]: 56.9 pg/mL
Estradiol concentrations in serum, Min [2, 6]: 8.3 pg/mL
Estradiol concentrations in serum, Max [2, 7]: 318.6 pg/mL
Estradiol concentrations in serum, Mean [2, 7]: 115.78 pg/mL
Estradiol concentrations in serum, Median [2, 7]: 100.2 pg/mL
Estradiol concentrations in serum, Min [2, 7]: 7.1 pg/mL
Estradiol concentrations in serum, Max [2, 8]: 384.9 pg/mL
Estradiol concentrations in serum, Mean [2, 8]: 72.85 pg/mL
Estradiol concentrations in serum, Median [2, 8]: 50 pg/mL
Estradiol concentrations in serum, Min [2, 8]: 11.8 pg/mL
Estradiol concentrations in serum, Median ([2]; Cp1 1 mg once daily oral, End of Treatment (12 weeks), listed as Cp1): 50.1 pg/mL
Estradiol concentrations in serum, Max [2, 9]: 490.2 pg/mL
Estradiol concentrations in serum, Mean [2, 9]: 120.72 pg/mL
Estradiol concentrations in serum, Median [2, 9]: 103.65 pg/mL
Estradiol concentrations in serum, Min [2, 9]: 21.5 pg/mL
Estradiol concentrations in serum, Max [2, 10]: 433.9 pg/mL
Estradiol concentrations in serum, Mean [2, 10]: 76.23 pg/mL
Estradiol concentrations in serum, Median [2, 10]: 50 pg/mL
Estradiol concentrations in serum, Min [2, 10]: 10.5 pg/mL
Estradiol concentrations in serum, Median ([2]; Cp1 2 mg once daily oral, End of Treatment (12 weeks), listed as Cp1): 49.95 pg/mL
Estradiol concentrations in serum, Max [2, 11]: 407.8 pg/mL
Estradiol concentrations in serum, Mean [2, 11]: 111.25 pg/mL
Estradiol concentrations in serum, Median [2, 11]: 96.6 pg/mL
Estradiol concentrations in serum, Min [2, 11]: 6.7 pg/mL
Estradiol concentrations in serum, Max [2, 12]: 255.3 pg/mL
Estradiol concentrations in serum, Mean [2, 12]: 56.51 pg/mL
Estradiol concentrations in serum, Median [2, 12]: 39 pg/mL
Estradiol concentrations in serum, Min [2, 12]: 9.5 pg/mL
Estradiol concentrations in serum, Median ([2]; Cp1 4 mg once daily oral, End of Treatment (12 weeks), listed as Cp1): 38.7 pg/mL
Estradiol concentrations in serum, Max [2, 13]: 347.6 pg/mL
Estradiol concentrations in serum, Mean [2, 13]: 117.05 pg/mL
Estradiol concentrations in serum, Median [2, 13]: 101.7 pg/mL
Estradiol concentrations in serum, Min [2, 13]: 6.8 pg/mL
Mean estradiol values after the EoT ([2]; all Doses, data not shown): returned to baseline levels
Estradiol levels under treatment compared to baseline ([4]; 2 mg once daily, 24 weeks): moderately suppressed
Safety concerns from the data analysed ([4]; 2 mg once daily, 24 weeks): no safety concerns were identified
Estradiol concentrations in serum, Max ([4]; Baseline): 644.2 pg/mL
Estradiol concentrations in serum, Mean ([4]; Baseline): 135.97 pg/mL
Estradiol concentrations in serum, Median ([4]; Baseline): 93.55 pg/mL
Estradiol concentrations in serum, Min ([4]; Baseline): 29.4 pg/mL
Estradiol concentrations in serum, Max [4, 14]: 557.5 pg/mL
Estradiol concentrations in serum, Mean [4, 14]: 77.46 pg/mL
Estradiol concentrations in serum, Median [4, 14]: 47.50 pg/mL
Estradiol concentrations in serum, Min [4, 14]: 11.0 pg/mL
Estradiol concentrations in serum, Max [4, 15]: 132.5 pg/mL
Estradiol concentrations in serum, Mean [4, 15]: 44.69 pg/mL
Estradiol concentrations in serum, Median [4, 15]: 42.50 pg/mL
Estradiol concentrations in serum, Min [4, 15]: 7.9 pg/mL
Mean estradiol values after the EoT ([4]; data not shown): returned to baseline levels
